# Results: US6506373B1, “Agent and method for permanent waving” (Wella Aktiengesellschaft, priority 1998, dated 2003)
# Key:
# [1] = Bundle tensile strength of permanently waved and fixed hair
# Experimental: The amount of permanent waving liquid was calculated from the ratio 1:1.2 (1 g of hair to 1.2 g of permanent waving liquid). The amount of 1.2 ml to 1 g of hair corresponds to an amount of 50 ml of permanent waving solution per head with an average weight of […] of hair per head. This solution was allowed to act for 15 minutes; the temperature of the reducing agent acting was 50° C. The permanent waving agent, based on thioglycolic acid, was rinsed out well with water (2 to 3 minutes). Subsequently, the hair strands were in each case moistened intensively with the respective ready-for-use fixative. This procedure was repeated three or six times, in that the strands, after each treatment, was suspended for six hours in the water bath.
# The tensile strength of the bundles, which are a measure of the preservation of the hair, were determined using individual strands of hair.
# [2] = cited from earlier work
# [3] = Permanent waving application test: reductive treatment, then fixing with the ready-for-use fixative; settings: hair reduced with 10% thioglycolic acid solution pH 8.2, then fixed
# Experimental: In these examples, the hair was treated reductively in each case in the following manner:
# The solution was allowed to act for 15 minutes. The reducing agent acted at a temperature of 50° C.
# At the end of the period of action, the excess permanent waving solution was rinsed out with water and the fixing solution was then applied with a sponge. The fixing solution is prepared 2 minutes before use by dissolving component 1 in component 2.
# The hair is fixed for 30 minutes at 22° C. and subsequently rinsed with water. The curlers are then removed and the hair is rinsed with lukewarm water. Finally, the hair is styled and then dried.
Compound,increase in hair damage on repeated use (bundle tensile strength after three vs six treatments) [1],stability in aqueous solution [2],brightening of the hair (shift in color) [3]
"O=C1O[C@H]([C@@H](O)CO)C(=O)C1=O [Dehydroascorbic Acid, dehydroascorbic acid]",no increase in hair damage,unstable and decomposes within a few hours,–
"OO [Peroxide, hydrogen peroxide]",–,–,clearly detectable shift in coloring the direction of red and yellow
